Source: patent US20250154198A1, “PEPTIDE INHIBITORS OF INTERLEUKIN-23 RECEPTOR” (Zealand Pharma A/S, priority 2021, published 2025)
Like-named read-outs stand apart in the source and are kept apart here. *1 amine or outer side, *2 acyl side, *3 side chain or, on linkers, in order; H or OH if unused. Where a SMILES comes first, the peptide text is derived from it. Bridges are numbered along the chain shown (N, C = ends). [ ]: non-standard residue; d: D form. Trp(6-F) = N[C@@H](Cc1c[nH]c2cc(F)ccc12)C(=O)O; Lys(N3) = [N-]=[N+]=NCCCC[C@H](N)C(=O)O; 2Nal = N[C@@H](Cc1ccc2ccccc2c1)C(=O)O; AEF = NCCOc1ccc(C[C@H](N)C(=O)O)cc1; X1 = O=C(Cc1ccc(CN[*:1])cc1)[*:2]; 3Pal = N[C@@H](Cc1cccnc1)C(=O)O; αMeL = CC(C)C[C@](C)(N)C(=O)O; CH2COCH2 = O=C(C[*:1])C[*:2]; Pra = C#CC[C@H](N)C(=O)O; Dab = NCC[C@H](N)C(=O)O

T1: human IL-23R (Homo sapiens, UniProt Q5VWK5)
T1 construct: UniProtKB—Q5VWK5, amino acids 22-629; secretion signal of the plasmid (Promega N1371); expressed in transfected cells
T1 sequence (Q5VWK5 22-629): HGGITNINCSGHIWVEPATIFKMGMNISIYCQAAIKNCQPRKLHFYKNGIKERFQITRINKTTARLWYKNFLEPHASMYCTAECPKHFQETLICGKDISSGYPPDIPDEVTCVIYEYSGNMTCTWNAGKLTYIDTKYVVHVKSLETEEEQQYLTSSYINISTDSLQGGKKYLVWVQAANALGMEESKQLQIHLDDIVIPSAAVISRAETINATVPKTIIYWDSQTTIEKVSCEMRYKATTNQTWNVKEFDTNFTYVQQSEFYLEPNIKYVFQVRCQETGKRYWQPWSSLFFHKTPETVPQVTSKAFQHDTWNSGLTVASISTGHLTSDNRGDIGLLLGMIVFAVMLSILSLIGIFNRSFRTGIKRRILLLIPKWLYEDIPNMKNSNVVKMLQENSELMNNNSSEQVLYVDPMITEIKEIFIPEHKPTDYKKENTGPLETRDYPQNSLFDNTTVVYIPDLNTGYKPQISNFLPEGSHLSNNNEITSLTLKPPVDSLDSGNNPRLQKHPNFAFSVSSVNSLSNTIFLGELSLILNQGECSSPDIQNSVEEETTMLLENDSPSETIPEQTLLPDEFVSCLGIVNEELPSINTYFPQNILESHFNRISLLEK

T2: Nluc-IL23R fusion protein (human, UniProt Q5VWK5 22-629)
T2 construct: range 22-629; Stably expressed in HEK293 cells; also called hIL-23R; human IL-23R fused to a Nanoluc luciferase enzyme; not shown: Nanoluc luciferase (Promega N1371 plasmid) at the N-terminus
T2 sequence (looked up): T1 sequence (Q5VWK5 22-629)

B1: Compound 34 (peptide)
peptide: GKTCWECWWXES
HELM: PEPTIDE1{[ac].G.K.T.C.W.E.C.W.W.[CC(C)C[C@](C)(N[*:1])C(=O)[*:2]].E.S.[am]}|CHEM1{[O=C(C[*:1])C[*:2]]}$PEPTIDE1,PEPTIDE1,3:R3-12:R3|PEPTIDE1,CHEM1,5:R3-1:R1|PEPTIDE1,CHEM1,8:R3-1:R2$$$V2.0
SMILES: CC(=O)NCC(=O)N[C@H]1CCCCNC(=O)CC[C@@H](C(=O)N[C@@H](CO)C(N)=O)NC(=O)[C@](C)(CC(C)C)NC(=O)[C@H](Cc2c[nH]c3ccccc23)NC(=O)[C@H](Cc2c[nH]c3ccccc23)NC(=O)[C@@H]2CSCC(=O)CSC[C@H](NC(=O)[C@H]([C@@H](C)O)NC1=O)C(=O)N[C@@H](Cc1c[nH]c3ccccc13)C(=O)N[C@@H](CCC(=O)O)C(=O)N2
B2: Compound 3 (peptide)
peptide: H-DCSCWECWWLCR-NH2
modifications: linker 2-11, 4-7 via CH2COCH2
B3: Compound 33 (peptide)
peptide: Ac-CTCWECWW[αMeL]CS-NH2
modifications: linker 1-10, 3-6 via CH2COCH2
SMILES: CC(=O)N[C@H]1CSCC(=O)CSC[C@@H](C(=O)N[C@@H](CO)C(N)=O)NC(=O)[C@](C)(CC(C)C)NC(=O)[C@H](Cc2c[nH]c3ccccc23)NC(=O)[C@H](Cc2c[nH]c3ccccc23)NC(=O)[C@@H]2CSCC(=O)CSC[C@H](NC(=O)[C@H]([C@@H](C)O)NC1=O)C(=O)N[C@@H](Cc1c[nH]c3ccccc13)C(=O)N[C@@H](CCC(=O)O)C(=O)N2
B4: Compound 23 (peptide)
peptide: Ac-DKS[Lys(N3)]WQ[Pra]W[2Nal]LER-NH2
modifications: lactam 2-11; triazole 4-7

How the values were obtained:
[1] = Peptide stability in simulated intestinal fluid (SIF); type: in vitro ADME; settings: pig
How it was run: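 Peptides incubated at 37°C with gentle shaking in SGF (NaCl, HCl, pH 1.2) or SIF (phosphate pH 6.8 with 10 g/L porcine pancreatin). Samples analysed by LC-HRMS; percent remaining at each timepoint calculated from absolute peak areas relative to time zero.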

[2] = Peptide stability in simulated gastric fluid (SGF); type: in vitro ADME; settings: pig
Protocol: Determination of Peptide Stability in Simulated Gastric Fluid (SGF) and Simulated Intestinal Fluid (SIF)
SGF was prepared by dissolving sodium chloride (0.2 g) in 50 mL of water. A volume of 0.7 mL of 10 M HCl was added to adjust the pH of the solution to 1.2 and the volume made up to 100 mL with water. […] SIF was prepared by dissolving monobasic potassium phosphate (0.68 g) in 50 mL of water and adjusting the pH to 6.8 with 1 M NaOH. The volume was subsequently made up to 100 mL with water. 200 mg porcine pancreatin (P1625, Sigma Aldrich) was gently dissolved into 20 mL preheated (37° C.) solution (10 g/L) immediately prior to the incubation.
The incubation was performed at 37° C. with gentle shaking. […] After the last timepoint, the sampling plate was mixed for 10 min on a shaking table and centrifuged 10 min at 2200 g. 70 μL resulting supernatant was diluted with 150 μL water, mixed and centrifugated before analysis by liquid chromatography high resolution mass spectrometry. […] Percent remaining at each timepoint was calculated relative to timepoint zero based on absolute peak areas.

human IL-23R = target: T1, human IL-23R; assay: Binding assay (NanoBRET displacement of fluorophore-labelled reference compound) for estimating binding affinity to human IL-23R; settings: for IL-23R inhibitory activity (in words): with reference to Ki and IC50 data of the Examples
[3] = target: IL-23 mediated phospho-STAT3 formation in DB cells (Homo sapiens, UniProt Q5VWK5); assay: Functional inhibition of IL-23 mediated STAT3 signalling (phospho-STAT3 Tyr705 MSD) in DB cells; type: cell-based; settings: DB cells, read-out: IC50 (pSTAT3)
How it was run: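 DB cells preincubated 15 min with compound at 37° C, then stimulated 90 min with hIL-23 at EC80. Lysate phospho-STAT3 measured by MSD, normalized to IL-23-alone and buffer wells; IC50 and maximal % inhibition from 4PL fit.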

[4] = target: T2, Nluc-IL23R fusion protein; assay: BRET displacement of TAMRA-labelled peptide, Nluc-IL23R membranes
[5] = simulated intestinal fluid (SIF) with porcine pancreatin, Table 3-2, porcine pancreatin, pH 6.8, 37° C., 10 μM, 1 h, read-out: SIF (% remaining 1 h)
[6] = simulated intestinal fluid (SIF) with porcine pancreatin, Table 3-2, porcine pancreatin, pH 6.8, 37° C., 10 μM, 4 h, read-out: SIF (% remaining 4 h)
[7] = simulated gastric fluid (SGF) with porcine pepsin, Table 3-3, porcine pepsin, pH 1.2, 37° C., 10 μM, 1 h, read-out: SGF (% remaining 1 h)
[8] = simulated gastric fluid (SGF) with porcine pepsin, Table 3-3, porcine pepsin, pH 1.2, 37° C., 10 μM, 4 h, read-out: SGF (% remaining 4 h)
[9] = Table 3-1, read-out: Ki hIL-23R

Molecule	remaining at 1 h, 10 μM [1, 5]	remaining at 4 h, 10 μM [1, 6]	remaining at 1 h, 10 μM [2, 7]	remaining at 4 h, 10 μM [2, 8]	Ki (human IL-23R; [9])	Ki [4]	other results
CC(=O)N[C@@H](CC(=O)O)C(=O)N[C@H]1CCCCNC(=O)CC[C@@H](C(=O)N[C@@H](CCCNC(=N)N)C(N)=O)NC(=O)[C@H](CC(C)C)NC(=O)[C@H](Cc2c[nH]c3ccccc23)NC(=O)[C@H](Cc2c[nH]c3ccccc23)NC(=O)[C@@H]2CSCC(=O)CSC[C@H](NC(=O)[C@H](CO)NC1=O)C(=O)N[C@@H](Cc1c[nH]c3ccccc13)C(=O)N[C@@H](CCC(N)=O)C(=O)N2 [Compound 7, [Ac]-DK(1c)SC(2a)WQC(2a)WWLE(1c)R-[NH2]] (HELM PEPTIDE1{[ac].D.K.S.C.W.Q.C.W.W.L.E.R.[am]}|CHEM1{[O=C(C[*:1])C[*:2]]}$PEPTIDE1,PEPTIDE1,3:R3-12:R3|PEPTIDE1,CHEM1,5:R3-1:R1|PEPTIDE1,CHEM1,8:R3-1:R2$$$V2.0)	0%	0%	0%	0%	–	–	potency depending on location of the amide bond in the [2,11] lactam bridge (in words) (human IL-23R; Compound 7 (amide closer to position 11) versus Compound 4 (closer to position 2), Table 2-3b): more active; Ki (human IL-23R; Table 2-3b, read-out: Ki IL-23R): 26.8 nM; IC50 ([3]; Table 2-3b): 159 nM
CC(=O)N[C@@H](CC(=O)O)C(=O)N[C@H]1CCC(=O)NCCCC[C@@H](C(=O)N[C@@H](CCCNC(=N)N)C(N)=O)NC(=O)[C@H](CC(C)C)NC(=O)[C@H](Cc2c[nH]c3ccccc23)NC(=O)[C@H](Cc2c[nH]c3ccccc23)NC(=O)[C@@H]2CSCC(=O)CSC[C@H](NC1=O)C(=O)N[C@@H](Cc1c[nH]c3ccccc13)C(=O)N[C@@H](CCC(N)=O)C(=O)N2 [Ref 5, [Ac]-DE(1c)C(2a)WQC(2a)WWLK(1c)R-[NH2], reference compound] (HELM PEPTIDE1{[ac].D.E.C.W.Q.C.W.W.L.K.R.[am]}|CHEM1{[O=C(C[*:1])C[*:2]]}$PEPTIDE1,PEPTIDE1,3:R3-11:R3|PEPTIDE1,CHEM1,4:R3-1:R1|PEPTIDE1,CHEM1,7:R3-1:R2$$$V2.0)	0%	0%	1%	0%	> 1000 nM	–	IL-23R inhibitory activity (in words) (human IL-23R): inactive; IC50 ([3]; Table 3-1): > 1000 nM
CC(C)C[C@]1(C)NC(=O)[C@H](Cc2c[nH]c3cc(F)ccc23)NC(=O)[C@H](Cc2ccc(OCCN)cc2)NC(=O)[C@@H]2CSCC(=O)CSC[C@H](NC(=O)[C@H](CO)NC(=O)Cc3ccc(cc3)CNC(=O)CC[C@@H](C(=O)N[C@@H](CCN)C(=O)N[C@@H](Cc3cccnc3)C(N)=O)NC1=O)C(=O)N[C@@H](Cc1c[nH]c3ccccc13)C(=O)N[C@@H](CCC(N)=O)C(=O)N2 [Compound 121, [4-Aminomethyl-phenylacetyl](1c)*SC(2a)WQC(2a)[Y(2-aminoethoxy)][6-F-Trp][2-Me-Leu]E(1c)[Dab][3-(3-Pyridyl)-Ala]-[NH2]] ([X1]SCWQC[AEF][Trp(6-F)][αMeL]E[Dab][3Pal]-NH2; linker 3-6 via CH2COCH2; lactam N-10)	–	–	–	–	0.00954 nM	–	remaining at 1 h, 10 μM ([1]; pH 6.8): 57%; remaining at 4 h, 10 μM ([1]; pH 6.8): 6%; remaining at 1 h, 10 μM ([2]; pH 1.2): 82%; remaining at 4 h, 10 μM ([2]; pH 1.2): 80%
CC(C)C[C@@H]1NC(=O)[C@H](Cc2c[nH]c3ccccc23)NC(=O)[C@H](Cc2c[nH]c3ccccc23)NC(=O)[C@@H]2CSCC(=O)CSC[C@H](NC(=O)[C@H](CO)NC(=O)[C@@H](NC(=O)[C@@H](N)CC(C)C)CSCC(=O)CSC[C@@H](C(=O)N[C@@H](CCCNC(=N)N)C(N)=O)NC1=O)C(=O)N[C@@H](Cc1c[nH]c3ccccc13)C(=O)N[C@@H](CCC(N)=O)C(=O)N2 [Compound 2, H-LC(1a)SC(2a)WQC(2a)WWLC(1a)R-[NH2]] (HELM PEPTIDE1{L.C.S.C.W.Q.C.W.W.L.C.R.[am]}|CHEM1{[O=C(C[*:1])C[*:2]]}|CHEM2{[O=C(C[*:1])C[*:2]]}$PEPTIDE1,CHEM1,2:R3-1:R1|PEPTIDE1,CHEM1,11:R3-1:R2|PEPTIDE1,CHEM2,4:R3-1:R1|PEPTIDE1,CHEM2,7:R3-1:R2$$$V2.0)	–	–	–	–	–	–	remaining at 1 h, 10 μM ([1]; Table 3-2, porcine pancreatin, pH 6.8, 37° C., 10 μM, 1 h, read-out: SIF (% remaining 1 h)): 0%; remaining at 4 h, 10 μM ([1]; Table 3-2, porcine pancreatin, pH 6.8, 37° C., 10 μM, 4 h, read-out: SIF (% remaining 4 h)): 0%; remaining at 1 h, 10 μM ([2]; Table 3-3, porcine pepsin, pH 1.2, 37° C., 10 μM, 1 h, read-out: SGF (% remaining 1 h)): 6%; remaining at 4 h, 10 μM ([2]; Table 3-3, porcine pepsin, pH 1.2, 37° C., 10 μM, 4 h, read-out: SGF (% remaining 4 h)): 1%; Ki (human IL-23R): 32.3 nM
CC(=O)N[C@@H](CC(=O)O)C(=O)N[C@H]1CCC(=O)NCCCC[C@@H](C(=O)N[C@@H](CCCNC(=N)N)C(N)=O)NC(=O)[C@H](CC(C)C)NC(=O)[C@H](Cc2c[nH]c3ccccc23)NC(=O)[C@H](Cc2c[nH]c3ccccc23)NC(=O)[C@@H]2CSCC(=O)CSC[C@H](NC(=O)[C@H](CO)NC1=O)C(=O)N[C@@H](Cc1c[nH]c3ccccc13)C(=O)N2 [Ref 6, [Ac]-DE(1c)SC(2a)WC(2a)WWLK(1c)R-[NH2], reference compound] (HELM PEPTIDE1{[ac].D.E.S.C.W.C.W.W.L.K.R.[am]}|CHEM1{[O=C(C[*:1])C[*:2]]}$PEPTIDE1,PEPTIDE1,3:R3-11:R3|PEPTIDE1,CHEM1,5:R3-1:R1|PEPTIDE1,CHEM1,7:R3-1:R2$$$V2.0)	0%	0%	0%	0%	> 1000 nM	–	IL-23R inhibitory activity (in words) (human IL-23R): inactive; IC50 ([3]; Table 3-1): > 1000 nM
B1	–	–	–	–	–	65 nM	–
B2	–	–	–	–	–	205 nM	–
B3	–	–	–	–	–	189 nM	–
B4	–	–	–	–	–	117 nM	–
